From US20260325465A1, “SHP-1 INHIBITORS FOR TREATING CANCER” (MDX MANAGEMENT LLC, priority 2022, published 2026)

Key:
[1] = system: EL4, B16, MC38, Pan01, KPC and LLC cancer cells; test: Phagocytosis by murine bone marrow-derived macrophages; format: cell-based; conditions: 1 μg/ml
Experimental: FIGS. 2A-2G depict that the inhibition of SHP-1 enhances macrophage proinflammatory response, antigen presentation and phagocytosis in a tumor milieu. FIG. 2A and FIG. 2B depict that SHP-1 activity in macrophages is triggered by proinflammatory stimulation and the extracellular cancer cell ligation (“touching”) of macrophages (green bar in FIG. 2A). […] The SHP-2 inhibitor SHP099 (1 μg/ml) was used in assays. FIG. 2C depicts the inhibition of SHP-1 by TPI-1 dose-dependently recovers IFNγ/LPS-induced activation of STAT1 (p-STAT1) and Erk1/2 (p-Erk1/2) de-activated by SHP-1 (red line). FIG. 2D and FIG. 2E depict that the inhibition of SHP-1 in macrophages by TPI-1 enhances production of proinflammatory cytokines (FIG. 2D) and expression of immunogenic antigen presentation machinery (FIG. 2E) by IFNγ/LPS in a tumor milieu. […] The SHP-1 and SHP-2 inhibitors TPI-1 and SHP099, respectively, was used at 1 μg/ml in assays.

STAT1 and Erk1/2 = test: Pulse inhibition of SHP-1, STAT1 and Erk1/2 phosphorylation (WB); format: cell-based, murine; conditions: IFNγ/LPS, immediately after treatment
Experimental: FIGS. 4A and 4B depict that pulse inhibition of SHP-1 transiently enhances proinflammatory signal transduction in macrophages. FIG. 4A: murine macrophages (bone marrow derived macrophages, or “BMDM”) were treated with TPI-1 for 15 min followed by wash to complete removal of TPI-1. At different time points after the TPI-1 treatment, macrophages were stimulated with IFNγ/LPS in the presence of alive cancer cells (1:1 ratio to BMDM) for 20 min prior to cell lysis and assaying SHP-1 activity using pNpp and WB detecting total and phosphorylated STAT1 and Erk1/2. FIG. 4B: the same setting as in FIG. 4A, except that after TPI-1 treatment, TPI-1 in medium was partially removed (50%) or without removal, followed by macrophage stimulation with IFNγ/LPS at different time points.

MC38 solid tumor = test: Cytokine secretion of excised MC38 tumor cubes (ELISA); set-up: species or system murine; conditions: 100 nM, 24 h
Source text: FIGS. 6A-6D depict that the inhibition of SHP-1 promotes anti-tumor effects or pro-tumor effects under different circumstances. FIG. 6A depicts that intratumoral macrophages upregulate expression of iRs (Pir-B, Siglec E, F and G, and SIRPα) along with tumor progression to late-stage large sizes. KPC pancreatic tumors of small sizes (<150 mm^3) and those grown to larger sizes (>800 mm^3) were dissociated to single cells, followed by flow cytometry analyses for cell surface protein expression on macrophages (gated F4/80+). FIG. 6B depicts that the inhibition of SHP-1 alone promotes TME immunosuppression. Excised MC38 solid tumor cubes were treated with SHP-1 inhibitor TPI-1 (100 nM) or vehicle (DMSO) in a cell culture setting. After 24 h, tumor secreting cytokines into the culture medium were assayed by ELISA.

[2] = system: PTP/SHP-1 activity in KPC tumor; test: PTP/SHP-1 activity in KPC tumor in vivo; set-up: species or system murine; conditions: with αTLR, cytokines, STING activator, RT, AZA or αPD-L1
[3] = system: KPC pancreatic adenocarcinoma; test: Study-1: continuous vs intermittent iSHP-1 with TLR agonists, efficacy; format: in vivo, mice; conditions: 1, 3 and 10 mg/kg i.p., with CpG plus PolyI:C
Experimental: FIGS. 11A-11E depict the impact of continuous or intermittent iShp-1 treatment on the efficacy and adverse toxicity. FIG. 11A depicts the study design. Mice with KPC pancreatic cancer were either continuously treated with TPI-1 (1× per day) or in an intermittent fashion with gapping days between two treatments (intermittent). Three doses, 1, 3 and 10 mg/kg (i.p.), were tested and TLR agonists (CpG plus PolyI:C, each 10 μg, i.p., 1× every 3 day) was given to kickstart inflammatory response. […] Tumor imaging (FIG. 11B) and volume change records (FIG. 11C) indicate similar efficacies of iShp-1 with continuous or intermittent schemes.
Tumor model: Single engraftment of KPC pancreatic adenocarcinoma
Treatments & dosing strategies: i) iSHP-1—TPI-1, 1, 3, and 10 mg/kg; i.p. either 1× per day (continuous), or following an intermittent schedule depicted in FIG. 11. ii) TLR agonists (αTLR)—CpG, PolyI:C, each 10 μg; i.p. every 3 days

[4] = system: KPC pancreatic ductal adenocarcinoma; test: Study-4: late-stage, large KPC pancreatic cancer; format: in vivo, mice
Experimental: (§1) FIGS. 14A-14E depict that pulse-intermittent inhibition of SHP-1 (iSHP-1) combined with TLR agonists (αTLR) treating late-stage KPC pancreatic ductal adenocarcinoma. FIG. 14A depicts the treatment scheme. Mice with large KPC tumors were treated (i.p.) consecutively for three days with TPI-I plus TLR agonists (CpG, PolyIC and R848, each 50 μg). After the initial pulse treatment, an intermittent period of 9-day was given before the 2nd cycle of treatment of two days with TPI plus TLR agonists. FIG. 14B depicts the luminescent images of mice with KPC tumor during the course of treatment. FIG. 14C depicts tumor volume changes.
Murine models: Single large pancreatic ductal adenocarcinoma (KPC-luc) C57BL6 syngeneic
Treatments: SHP-1 inhibition (iSHP-1) combined with TLR agonists (αTLR)

Study-4: adverse effects = format: in vivo, mice; conditions: TPI-1 with TLR agonists (each 50 μg), i.p.
Experimental: as §1

SMILES: O=C1C=CC(=O)C(c2cc(Cl)ccc2Cl)=C1 [TPI-1]
- phagocytosis of cancer cells [1]: promotes proinflammatory-activated macrophages for phagocytosis of cancer cells
- pSTAT-1 and pErk1/2 (STAT1 and Erk1/2): increased pSTAT-1 and pErk1/2
- tumor production of IL-6 (MC38 solid tumor): increased tumor production of IL-6 and IL-10
- tumor production of IL-10 (MC38 solid tumor): increased tumor production of IL-6 and IL-10
- treatment-induced PTP/SHP-1 activity abated [2]: abated
- tumor response [3]: restrained KPC pancreatic tumor growth and induced tumor regression
- anti-tumor immune cells ([4]; TPI-1 combined with αTLR, i.p.): bolstered anti-tumor immune cells such as CD8+ T cells, NK cells and neutrophils
- eradication of late-stage tumors ([4]; TPI-1 combined with αTLR, i.p.): effectively eradiated late-stage, large KPC pancreatic cancers
- intratumoral immunosuppressive populations ([4]; TPI-1 with TLR agonists, day 4): reduction of intratumoral immunosuppressive populations including macrophages (MØ) and MDSC
- adverse effects and body weight (Study-4: adverse effects): minor adverse effects and transient body weight loss followed by recovery
